This note sets out measurements from paper PMC10010340, “The Wnt Pathway Inhibitor RXC004 Blocks Tumor Growth and Reverses Immune Evasion in Wnt Ligand–dependent Cancer Models” (Cancer Research Communications, 2022).

The subject of data set [1] is β-catenin protein levels in L-Wnt3a cells. Put plainly: β-catenin expression by flow cytometry. Format: cell-based, mouse. The settings on record: 100 nmol/L, 24 hours. The procedure:
(§1) Reporter Assay: Media from L-Wnt3a cells (L cells overexpressing Wnt3a; ATCC CRL-2647) treated with a concentration-series of RXC004, was incubated with the LEADING LIGHT Wnt Reporter Cell Line (Enzo life sciences; ENZ-61002-0001). Luciferase was detected using the ONE-Glo Luciferase Assay System (Promega E6120), data were normalized to DMSO-treated controls and IC50 values determined. Recombinant Wnt3a (Bio-Techne #1324-WN-010) was used at 1 μg/mL. β-catenin expression: L-Wnt3a cells were treated with RXC004 (100 nmol/L) or DMSO (0.1%) for 24 hours. Cellular β-catenin protein levels were quantified by staining with anti-β-catenin (AlexaFluor488, BD 562505) and assessment using an Agilent Novocyte-3000 flow cytometer.

The test system of data set [2] is functional Wnt production from mouse L-Wnt3a cells. Put plainly: Wnt reporter assay (L-Wnt3a conditioned media on LEADING LIGHT Wnt Reporter Cell Line). Format: cell-based. As to the method: as §1
In general terms: In a reporter assay the amount or activity of a reporter protein is the signal.

The nature of another data set: Plasma protein binding. Format: in vitro ADME. The procedure: Plasma protein binding: Mouse, rat, dog, and human plasmas were obtained from TCS Biosciences Ltd and Sera Laboratories Ltd. A total of 20 μmol/L RXC004 in 10% plasma diluted with phosphate buffer was dialyzed against phosphate buffer for 18 hours at 37°C. The concentration of RXC004 each side of the dialysis plate was determined by LC/MS-MS. Results were corrected to 100% plasma.

Another data set is described as follows: Hepatocyte stability. In kind it is in vitro ADME, dog (Beagle). The following applies: Dog, 1 μmol/L. The procedure:
Metabolic stability: liver microsomes and hepatocytes from human, mouse (CD1), rat (Sprague Dawley) and dog (Beagle) were obtained from Invitrogen. RXC004 (1 μmol/L) was incubated at 37°C with microsomes (0.5 mg · mL^−1) or hepatocytes (0.5 × 10^6 cells · mL^−1). Aliquots were removed at 0–45 minutes and RXC004 concentrations determined by LC/MS-MS analysis. Half-life (T1/2) and intrinsic clearance (CLint) were calculated as described in ref. [18].

The next data set deals with HCT116 cells. Put plainly: In vitro glucose uptake. Format: cell-based, human. The following applies: HCT116, RXC004 100 nmol/L, 48 hours. The procedure:
(§2) SNU-1411, HPAF-II, and HCT116 cells were treated in vitro for 48 hours with RXC004 (100 nmol/L), Latrunculin A (Abcam #ab144290; 500 nmol/L), or DMSO prior to analysis using the Glucose Uptake Glo Assay Kit (Promega #J1341). The ATPlite assay was used to control for cell viability, confirming RXC004 has no effect on proliferation at this 48 hours timepoint.

Another data set has as its system HPAF-II cells. Kind of data set: In vitro glucose uptake. Format: cell-based, human. The following applies: Homo sapiens, RXC004 100 nmol/L, 48 hours. The procedure:
as §2

In another data set the test system is SNU-1411 cells. Kind of data set: In vitro glucose uptake. In kind it is cell-based, human. The settings on record: Homo sapiens; SNU-1411, RXC004 100 nmol/L, 48 hours. The procedure: as §2
The test system of the next data set is SNU-1411 xenograft. Put plainly: SNU-1411 xenograft dose-response study. In kind it is in vivo, mouse (NOD-SCID). The settings on record: day 19; 1.5 and 5 mg/kg once daily, 1.5 mg/kg twice daily continuous or 5-day on/2-day off. As to the method: To explore dose–response effects in vivo, SNU-1411 (1 × 10^7 cells) were implanted into NOD-SCID mice subcutaneously at Axis Bioservices. Animals were randomized into the indicated groups and oral dosing of RXC004 was initiated when tumors reached approximately 200 mm^3. Tumor volume measurements were taken at day 19, n ≥9 per group. Pharmacokinetic/pharmacodynamic analysis in SNU1411/NOD-SCID mice was performed in a separate study at Axis Biosciences, with tissue and plasma extracted for assessments after 7 days of RXC004 dosing. Tumor was divided into two sections; one section snap frozen and the other processed by FFPE. RXC004 levels were determined in snap frozen tumor and blood samples by LC/MS-MS. Expression analysis of the indicated genes was performed on snap frozen tumor as described above. Serial FFPE tumor sections were stained with H&E, anti-Ki67 (Abcam #Ab15580) or the dual mucin stain Alcian-blue/periodic acid shift (AB-PAS) at Histologix. IHC images were quantified using HALO software and modules (Indica Labs). The AB-PAS images were analyzed with the area quantification module on tumor area. […] The Ki67 images were analyzed with the multiplex IHC module and number of Ki67-positive cells were determined per mm^2 of total or differentiated tumor area.

For the next data set, the system named is B16F10 tumors. Put plainly: B16F10/C57BL/6 syngeneic model. In kind it is in vivo, mouse (C57BL/6). The procedure:
B16F10/C57BL/6 syngeneic model was performed at Axis Bioservices. Mouse B16F10 cells (2 × 10^5) were subcutaneously implanted in flanks of the immunocompetent male C57BL/6 mice. Treatment was initiated at day 3, once tumors were palpable with RXC004 being dosed orally as indicated. Anti-programmed cell death protein-1 (PD-1; RMP1-14, BioXcell) or isotype control was dosed at 100 μg per dose intraperitoneal, twice weekly. Anti-CTLA-4 antibody (BioXCell BP0131) or isotype control was dosed intraperitoneally every 3 days at 100 μg per dose. Separate experiments were performed for tumor volume and flow cytometry analysis. Tumor volume was assessed in each animal and/or group until prespecified termination conditions and/or study endpoint were reached. For flow cytometry, tumors were resected at day 19, 2 hours after final dose, weighed and digested into a single-cell suspension using collagenase (Liberase, Roche) and DNAase and passed through a strainer prior to flow cytometry analysis on FACS Canto II apparatus using Flow JO software. Single and fluorescence minus one stains were used for compensation setup and gating controls respectively. A myeloid analysis panel included Zombie viability dye (BioLegend #423106), CD11b (BioLegend #101228), CD45, Ly6C, and Ly6G (BD Biosciences #563891, #562727, #551460). Myeloid myeloid-derived suppressor cells (MDSC) were gated as CD45^+CD11b^+ Ly6G-Ly6C^high and polymorphonuclear MDSCs were gated as CD45^+CD11b^+ Ly6G^+Ly6C^med ([21]). For gene expression analysis, tumors were snap frozen, total RNA was extracted and mRNA expression levels for various genes analyzed using the Nanostring nCounter Mouse PanCancer IO360 Codeset.

A value given as a limit tells only on which side of the number the result lay.

As to `Cc1c(-c2ccnc(C(F)(F)F)c2)ncn1CC(=O)Nc1ccc(-c2cnccn2)cn1` [RXC004, 2-[5-methyl-4-[2-(trifluoromethyl)-4-pyridyl]imidazol-1-yl]-N-(5-pyrazin-2-yl-2-pyridyl)acetamide], in data set [1], the β-catenin protein levels result is “reduces β-catenin protein levels in L-Wnt3a cells back to baseline”. Further, the IC50 – broadly, the concentration that inhibits the measured activity by half – in data set [2] (Mus musculus, L Wnt-3A, L-Wnt3a cells treated with concentration-series, read-out: IC50, β-catenin responsive luciferase reporter activated by conditioned media) came to 0.064 nM. Besides, the “effect on downstream Wnt signaling (rescue by recombinant Wnt3a)” value in [2] (recombinant Wnt3a 1 μg/mL) is reported as “no effect on downstream Wnt signaling”. For the same compound, the “Plasma protein binding (% free)” value in the data set “Plasma protein binding” (Dog) is listed as 2.5 % free; in the data set “Plasma protein binding” (Human), 4.2 % free; in the data set “Plasma protein binding” (Mouse), 7.5 % free; in the data set “Plasma protein binding” (Rat) it was 5.0 % free. Further, in the data set “Hepatocyte stability”, the “Hepatocyte stability: CLint” value is reported as 12.5 μL minute^−^1 · 10^6 cells^−^1. In addition, the glucose uptake entry in the data set on HCT116 cells is reported as “had no effect”. For the same compound, the inhibition at 0.1 µM in the data set on HPAF-II cells and in the data set with SNU-1411 cells was greater than 50% each time. For the same compound, in the data set with SNU-1411 xenograft, the tumor volume entry is “Significant reduction in tumor volume”. Moreover, the survival hazard ratio in the data set with B16F10 tumors (5 mg/kg QD versus vehicle, P <0.0001, Log-rank test) was 0.27. In addition, the survival entry in the data set with B16F10 tumors (5 mg/kg once daily) is “significantly increased survival”. Further, the “tumor expression of CXCL9” value in the data set with B16F10 tumors (5 mg/kg once daily) is “increased tumor expression of the chemokine CXCL9”. Further, the “tumor-associated CD45+ immune cells (Nanostring)” value in the data set on B16F10 tumors (5 mg/kg once daily) is recorded as “significantly increased the overall tumor-associated CD45^+ immune cells”. In the data set on B16F10 tumors (5 mg/kg once daily, day 19), the “circulating MDSC” value is “concomitant increase in circulating MDSC”. In the data set with B16F10 tumors (5 mg/kg once daily, day 19), the “tumor-associated MDSCs” value is “significantly reduced tumor-associated MDSCs”. Further, the “tumor volume / tumor growth” value in the data set with B16F10 tumors (RXC004 5 mg/kg once daily, anti-PD-1 100 μg per dose twice a week) is “significant tumor growth inhibition”.
